What all share (type): functional
The test system of test [1] is Globisporangium middletonii. In words: Antimicrobial activity of agar culture isolated compound against Pythium middletonii assessed as colony area after 1 day.
The test system of test [2] is Fusarium oxysporum. In words: Antimicrobial activity of agar culture isolated compound against Fusarium oxysporum assessed as colony area after 2 days.
The subject of test [3] is Rhizoctonia solani. In words: Antimicrobial activity of agar culture isolated compound against Rhizoctonia solani assessed as colony area after 2 days.
The subject of test [4] is Gaeumannomyces tritici. Kind of test: Antimicrobial activity of broth culture isolated compound against Gaeumannomyces graminis var. tritici assessed as colony area after 4 days.
The subject of test [5] is Phytophthora cinnamomi. Kind of test: Antimicrobial activity of agar culture isolated compound against Phytophthora cinnamomi assessed as colony area after 1 day.
In test [6] the test system is Rhizoctonia solani. In words: Antimicrobial activity of agar culture isolated compound against Rhizoctonia solani assessed as colony area after 1 day.
Test [7] deals with Gaeumannomyces tritici. Kind of test: Antimicrobial activity of broth culture isolated compound against Gaeumannomyces graminis var. tritici assessed as colony area after 6 days.
For test [8], the system named is Globisporangium middletonii. Kind of test: Antimicrobial activity of agar culture isolated compound against Pythium middletonii assessed as colony area after 2 days.
Test [9] has as its system Gaeumannomyces tritici. Kind of test: Antimicrobial activity of agar culture isolated compound against Gaeumannomyces graminis var. tritici assessed as colony area after 1 day.
Test [10] has as its system Bipolaris sorokiniana. Kind of test: Antimicrobial activity of agar culture isolated compound against Bipolaris sorokiniana assessed as colony area after 3 days.
The test system of test [11] is Rhizoctonia solani. In words: Antimicrobial activity of agar culture isolated compound against Rhizoctonia solani assessed as colony area after 3 days.
The test system of test [12] is Fusarium oxysporum. Kind of test: Antimicrobial activity of agar culture isolated compound against Fusarium oxysporum assessed as colony area after 1 day.
Test [13] deals with Fusarium oxysporum. In words: Antimicrobial activity of agar culture isolated compound against Fusarium oxysporum assessed as colony area after 3 days.
Test [14] has as its system Bipolaris sorokiniana. In words: Antimicrobial activity of agar culture isolated compound against Bipolaris sorokiniana assessed as colony area after 2 days.
Test [15] concerns Globisporangium middletonii. Kind of test: Antimicrobial activity of agar culture isolated compound against Pythium middletonii assessed as colony area after 3 days.
Test [16] relates to Phytophthora cinnamomi. In words: Antimicrobial activity of agar culture isolated compound against Phytophthora cinnamomi assessed as colony area after 2 days.
Test [17] concerns Gaeumannomyces tritici. In words: Antimicrobial activity of broth culture isolated compound against Gaeumannomyces graminis var. tritici assessed as colony area after 5 days.
For test [18], the system named is Gaeumannomyces tritici. Kind of test: Antimicrobial activity of agar culture isolated compound against Gaeumannomyces graminis var. tritici assessed as colony area after 3 days.
Test [19] deals with Gaeumannomyces tritici. Kind of test: Antimicrobial activity of broth culture isolated compound against Gaeumannomyces graminis var. tritici assessed as colony area after 3 days.
The test system of test [20] is Phytophthora cinnamomi. Kind of test: Antimicrobial activity of agar culture isolated compound against Phytophthora cinnamomi assessed as colony area after 3 days.
Test [21] concerns Gaeumannomyces tritici. In words: Antimicrobial activity of broth culture isolated compound against Gaeumannomyces graminis var. tritici assessed as colony area after 2 days.
Test [22] relates to Gaeumannomyces tritici. In words: Antimicrobial activity of agar culture isolated compound against Gaeumannomyces graminis var. tritici assessed as colony area after 2 days.
The test system of test [23] is Bipolaris sorokiniana. Kind of test: Antimicrobial activity of agar culture isolated compound against Bipolaris sorokiniana assessed as colony area after 1 day.

SMILES strings stand for the structures.

With `CCCCCC[C@H](O)[C@@H]1C[C@@H](O)C2=C(O1)[C@H](O)CCC2=O`, the Activity is recorded as 38 mm2 in test [1]; 103 mm2 in test [2]; 42 mm2 in test [3]; 63 mm2 in test [4]; 37 mm2 in [5]; 38 mm2 in test [6]. Besides, the Activity in test [7] is given as 549 mm2; in [8], 184 mm2; in test [9], 40 mm2; in [10], 45 mm2; in test [11], 46 mm2; in test [12], 46 mm2. Moreover, the Activity is 170 mm2 in test [13]; 46 mm2 in [14]; 232 mm2 in test [15]; 38 mm2 in [16]; 198 mm2 in test [17]; 44 mm2 in test [18]. In addition, the Activity in [19] is 33 mm2; in [20] it was 92 mm2; in test [21], 32 mm2; in test [22] it was 42 mm2; in test [23], 44 mm2.
